Like-named read-outs stand apart in the source and are kept apart here. No end group written: not given here.
Assays:
[1] = system: primary cortical and striatal neurons; assay: cell death assay by nuclear morphology in Tom40 RNAi-transfected primary neurons; assay type: cell-based, mouse; details: 20 μM
Protocol: Mouse primary cortical and striatal neurons from embryonic day (E) 15.5 Swiss Webster mouse fetuses were cultured in plating medium (minimal essential medium (MEM), 10% FBS, 0.45% glucose, 1 mM sodium pyruvate, 2 mM glutamine and penicillin/streptomycin) for 3 h and then maintained in serum-free Neurobasal medium containing B27 supplement (Life Technologies), 0.5 mM glutamine and 25 μM glutamate for the first 3 d in a humidified incubator (37° C. in 5% CO2). Half of the medium was replaced with Neurobasal medium with B27 and 0.5 mM glutamine every 3 d. […] Viral copy number was adjusted for transduction of neurons on the basis of titer measured using the Lenti-X qRT-PCR titration kit (Clontech). […]
Primary neurons infected with Tim23 shRNA or control luciferase shRNA lentivirus at DIV 5 were fixed 7 d after infection. Nuclei were stained with Hoechst 33342, and neurons were assessed in a blinded fashion for cell death by scoring condensed or fragmented nuclei. Primary neurons plated in a 24-well plate were transfected with Tom40 shRNA or control pBSU6 plasmid along with β-gal expression plasmid at DIV 5, fixed 3 d after transfection and subjected to indirect immunofluorescence with anti-β-gal antibody and nuclear DAPI staining. β-gal-positive neurons were assessed for cell death as described above. […]

Tim23 = target: T1, Tim23 (Mus musculus, UniProt Q9WTQ8); assay: GST pull down assay with purified Tim proteins; assay type: binding
T1 construct: GST (N, cleaved yes); made in house; host or cells: E. coli BL21star (DE3)
T1 sequence (Q9WTQ8 1-209): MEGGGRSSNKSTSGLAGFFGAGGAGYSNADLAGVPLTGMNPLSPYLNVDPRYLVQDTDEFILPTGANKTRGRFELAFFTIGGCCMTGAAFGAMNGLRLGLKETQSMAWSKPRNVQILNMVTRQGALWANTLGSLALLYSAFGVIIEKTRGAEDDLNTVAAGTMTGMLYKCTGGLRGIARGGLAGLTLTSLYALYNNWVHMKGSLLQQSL
Protocol: Mouse Timm23, Timm50, Timm17A, and Timm17B cDNA were subcloned into the GST-Httex1 vector and transformed into BL21star (DE3) cells (Life Technologies). GST-Tim23, GST-Tim50, GST-Tim17A, and GST-Tim17B fusion proteins were purified from the cells by using glutathione 4B Sepharose beads (GE Healthcare) to bind the fusion proteins. To purify Tim proteins from GST, the GST fusion protein-bead complexes were digested with thrombin protease (GE Healthcare) at 25° C. overnight, and eluted with PBS. The eluted proteins were concentrated in PBS using AmiconUltra-10K centrifugal filters (Millipore).
GST-Htt exon 1 proteins and GST removed Tim proteins were incubated with glutathione 4B Sepharose beads (GE Healthcare) at 4° C. overnight. The glutathione beads were then washed extensively with ice-cold PBS, and bound proteins were subjected to SDS-PAGE followed by immunoblotting analysis.

[2] = system: TIM23 complex (Tim17a, Tim23 and Tim50); assay: GST pull-down with mitochondria isolated from ST14A striatal cells and mouse brain; assay type: binding, rat
Protocol: Extracts were spun at 14,000 r.p.m. at 4° C., and clarified supernatants were incubated with glutathione 4B Sepharose beads (GE Healthcare) at 4° C. overnight. The glutathione beads were then washed extensively with ice-cold TNE buffer, and bound proteins were subjected to SDS-PAGE followed by immunoblotting analysis. For the samples subjected to mass spectrometry, glutathione bead-bound proteins from equal amounts (600 μg) of mitochondria were further washed with high stringency RIPA buffer following TNE buffer wash to decrease nonspecific interaction. Proteins were then eluted from the glutathione beads in SDS sample buffer, separated by SDS-PAGE and stained with Coomassie. Proteins in the gel were digested with trypsin and analyzed by mass spectrometry (LC-MS/MS) at the Taplin Biological Mass Spectrometry Facility (Harvard Medical School, Boston, Mass.).
We therefore performed GST pull-down assays using purified GST-Httex1-97Q, GST-Httex1-97Q-ΔN17, which lacks the N17 sequence, and GST-N17 with mitochondria isolated from ST14A striatal cells and mouse brain.

[3] = system: pOTC import into mitochondria isolated from striatal cells; assay: pOTC import assay with mitochondria from striatal cells plus uncoupler; assay type: biochemical; details: added to mitochondria before starting the import reaction
Protocol: The assay was performed as previously described (52,53).

[4] = system: WT primary cortical neurons; details: 10 μM
Protocol: Primary cortical neurons were prepared from R6/2 and WT littermate embryos at E15.5. Neurons prepared from each embryo were plated into separate dishes. […] Primary cortical neurons were incubated with the indicated concentrations of H2O2 for 1 day, and neuronal death was analyzed by lactate dehydrogenase (LDH) assay (11c). Data (11b, 11c) are presented as mean+s.e.m.

[5] = system: mitochondrial protein import in primary cortical neurons; details: 10 μM, 2 h
Protocol: Neurons obtained from each embryo were cultured separately on poly-1-lysine-coated plates and subjected to in vitro pOTC import assay on DIV 7-8.
Pre-ornithine transcarbamylase (pOTC) cDNA in pGEM-3Zf(+)-pOTC plasmid, which was kindly provided by M. Yano (Kumamoto University, Kumamoto, Japan), was transcribed and translated in vitro using the TNT-coupled reticulocyte lysate system (Promega) in the presence of 1-[^35S]methionine (PerkinElmer). Following translation, [35 S]methionine-labeled pOTC was incubated with isolated mitochondria at 25° C. for the indicated times, and mitochondria containing imported OTC were collected by centrifugation (9,000 g, 10 min) and subjected to SDS-PAGE. The radioactive polypeptides on the gel were visualized by fluorography with Amplify (GE Healthcare) followed by exposure to X-ray film. Cleaved mature OTC (mOTC), which represents the completion of import into the mitochondrial matrix and migrates faster than pOTC on SDS-PAGE, was quantified by ImageJ (NIH). The data are presented as the percentage of mOTC compared to input (total [^35S]pOTC amount added to each reaction) and scaled to imported mOTC in control mitochondria after the maximum reaction time (set equal to 1) unless otherwise specified. […]

CC(C)[C@H](NC(=O)c1ccc2ccccc2n1)C(=O)N[C@@H](CC(=O)O)C(=O)COc1c(F)cccc1F [qVD-OPh]
effect on Tom40 RNAi-induced neuronal death [1]: partially but significantly inhibited

GST-N17: GST tagged N terminal 17 amino acids of Huntingtin protein (MATLEKLMKAFESLKSF; also: GST tagged, side not given here)
binding to Tim23 in pull down (Tim23): did not bind
interaction with Tim17a, Tim23 and Tim50 in pull-down [2]: little, if any, interaction

O=[N+]([O-])c1ccc(O)c([N+](=O)[O-])c1 [2,4-dinitrophenol]
effect on pOTC import [3]: blocks import

OO [hydrogen peroxide]
effect on survival [4]: does not affect
effect on mitochondrial protein import vs vehicle ([5]; R6/2 neurons): significantly decreased import
effect on mitochondrial protein import vs vehicle ([5]; WT neurons): little to no effect

Reference: patent publication US11298409B2, “Mutant huntingtin-mediated protein dysfunction” (UNIVERSITY OF PITTSBURGH—OF THE COMMONWEALTH SYSTEM OF …, priority 2014, dated 2022)
